This assay addresses T1, human LPA1 (Homo sapiens, UniProt Q92633).
T1 construct: expressed in transfected cells; host or cells: Chinese hamster ovary (CHO) cells
Nature of the assay: LPA1 functional antagonist assay (LPA-induced calcium flux). The assay is classed as cell-based. Conditions: read-out: hLPA1 IC50. As to the method:
The effectiveness of compounds of the present invention as LPA1 inhibitors can be determined in an LPA1 functional antagonist assay as follows: Chinese hamster ovary cells overexpressing human LPA1 were plated overnight (15,000 cells/well) in poly-D-lysine coated 384-well microplates (Greiner bio-one, Cat #781946) in DMEM/F12 medium (Gibco, Cat #11039). Following overnight culture, cells were loaded with calcium indicator dye (AAT Bioquest Inc, Cat #34601) for 30 minutes at 37° C. The cells were then equilibrated to room temperature for 30 minutes before the assay. Test compounds solubilized in DMSO were transferred to 384 well non-binding surface plates (Corning, Cat #3575) using the Labcyte Echo acoustic dispense and diluted with assay buffer [1×HBSS with calcium/magnesium (Gibco Cat #14025-092), 20 mM HEPES (Gibco Cat #15630-080) and 0.1% fatty acid free BSA (Sigma Cat #A9205)] to a final concentration of 0.5% DMSO. Diluted compounds were added to the cells by FDSS6000 (Hamamatsu) at final concentrations ranging from 0.08 nM to 5 μM. and were then incubated for 20 min at room temperature at which time LPA (Avanti Polar Lipids Cat #857130C) was added at final concentrations of 10 nM to stimulate the cells. […] IC50 values were determined by fitting data to a 4-parameter logistic equation (GraphPad Prism, San Diego Calif.).
On the technique in general: Calcium flux is commonly read through the fluorescence of an indicator in the cells.

Where [1] appears, read: CHO cells overexpressing human LPA1, inhibition of calcium flux induced by 10 nM LPA.

Like-named read-outs stand apart in the source and are kept apart here.

T1 sequence (Q92633 whole entry): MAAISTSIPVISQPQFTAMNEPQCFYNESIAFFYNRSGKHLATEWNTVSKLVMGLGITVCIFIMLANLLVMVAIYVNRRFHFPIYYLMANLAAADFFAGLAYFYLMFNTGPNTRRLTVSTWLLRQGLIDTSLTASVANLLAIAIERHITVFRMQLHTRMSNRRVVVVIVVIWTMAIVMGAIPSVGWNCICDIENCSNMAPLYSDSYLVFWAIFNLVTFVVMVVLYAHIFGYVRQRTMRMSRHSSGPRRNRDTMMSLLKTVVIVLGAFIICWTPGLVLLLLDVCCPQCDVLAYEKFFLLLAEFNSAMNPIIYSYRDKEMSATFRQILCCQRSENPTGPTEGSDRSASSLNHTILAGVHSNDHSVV

On to `CCCCCN(C)C(=O)OCc1c(-c2cnc(O[C@H]3CCC[C@H](C(=O)O)C3)c(C)n2)nnn1C` [Example 223, (1S,3S)-3-((3-methyl-5-(1-methyl-5-(((methyl(pentyl)carbamoyl)oxy)methyl)-1H-1,2,3-triazol-4-yl)pyrazin-2-yl)oxy)cyclohexane-1-carboxylic acid], for which, under setting [1], the IC50 (commonly the concentration that gives 50% inhibition) came to 0.056 µM.

For `Cc1nc(-c2nnn(C)c2COC(=O)N(C)C2(C(C)C)CC2)ccc1O[C@H]1CCC[C@H](C(=O)O)C1` [Example 129, (1S,3S)-3-((6-(5-((((1-isopropylcyclopropyl)(methyl)carbamoyl)oxy)methyl)-1-methyl-1H-1,2,3-triazol-4-yl)-2-methylpyridin-3-yl)oxy)cyclohexane-1-carboxylic acid], the IC50 is 0.352 µM.

As to `Cc1nc(-c2nnn(C)c2CCOC(=O)N2CCCC2)ccc1O[C@H]1CCC[C@H](C(=O)O)C1` [Example 246, (2S,3S)-3-((2-Methyl-6-(1-methyl-5-(2-((pyrrolidine-1-carbonyl)oxy)-ethyl)-1H-1,2,3-triazol-4-yl)pyridin-3-yl)oxy)cyclohexane-1-carboxylic acid], the IC50 under setting [1] was 0.21 µM.

On to `CCCN(C)C(=O)OCc1c(-c2ccc(O[C@H]3CCC[C@H](C(=O)O)C3)cn2)nnn1C` [Example 173, (1S,3S)-3-((6-(1-methyl-5-(((methyl(propyl)carbamoyl)oxy)methyl)-1H-1,2,3-triazol-4-yl)pyridin-3-yl)oxy)cyclohexane-1-carboxylic acid], for which, for the setting “human LPA1”, the IC50 is 0.131 µM.

`[2H]C([2H])([2H])n1nnc(-c2ccc(O[C@H]3CCC[C@H](C(=O)O)C3)cn2)c1COC(=O)N(C)CCCC` [Example 112, (1S,3S)-3-((6-(5-(((butyl(methyl)carbamoyl)oxy)methyl)-1-(methyl-d3)-1H-1,2,3-triazol-4-yl)pyridin-3-yl)oxy)cyclohexane-1-carboxylic acid]: the IC50 is 0.017 µM.

For `CCc1nc(-c2nnn(C)c2COC(=O)NC23CC(C2)C3)ccc1O[C@H]1CCC[C@H](C(=O)O)C1` [Example 205, (1S,3S)-3-((6-(5-(((bicyclo[1.1.1]pentan-1-ylcarbamoyl)oxy)methyl)-1-methyl-1H-1,2,3-triazol-4-yl)-2-ethylpyridin-3-yl)oxy)cyclohexane-1-carboxylic acid], the IC50 under setting [1] stood at 0.842 µM.

`Cc1nc(-c2nnn(C)c2COC(=O)N(C)CC(C)(C)F)cnc1O[C@H]1CCC[C@H](C(=O)O)C1` [Example 232, (1S,3S)-3-((5-(5-((((2-fluoro-2-methylpropyl)(methyl)carbamoyl)oxy)methyl)-1-methyl-1H-1,2,3-triazol-4-yl)-3-methylpyrazin-2-yl)oxy)cyclohexane-1-carboxylic acid]: the IC50 under setting [1] came out at 0.191 µM.

For the compound `Cc1nc(-c2nnn(C)c2COC(=O)N(C)C2CCCC2)cnc1O[C@H]1CCC[C@H](C(=O)O)C1` [Example 226, (1S,3S)-3-((5-(5-(((cyclopentyl(methyl)carbamoyl)oxy)methyl)-1-methyl-1H-1,2,3-triazol-4-yl)-3-methylpyrazin-2-yl)oxy)cyclohexane-1-carboxylic acid], the IC50 under setting [1] turned out to be 0.049 µM.

Turning to `CN(Cc1ccccc1)C(=O)OCc1c(-c2ccc(O[C@H]3CCC[C@H](C(=O)O)C3)c(F)c2)nnn1C` [Example 26, (1S,3S)-3-(4-(5-(((benzyl(methyl)carbamoyl)oxy)methyl)-1-methyl-1H-1,2,3-triazol-4-yl)-2-fluorophenoxy)cyclohexane-1-carboxylic acid], the IC50 is 0.034 µM.

Consider `Cc1nc(-c2nnn(C)c2COC(=O)N2CCCC2CC(C)C)ccc1O[C@H]1CCC[C@H](C(=O)O)C1` (mixture of isomers) [Example 153, (1S,3S)-3-((6-(5-(((2-isobutylpyrrolidine-1-carbonyl)oxy)methyl)-1-methyl-1H-1,2,3-triazol-4-yl)-2-methylpyridin-3-yl)oxy)cyclohexane-1-carboxylic acid], for which the IC50 amounted to 0.163 µM.

Turning to `Cc1nc(-c2nnn(C)c2COC(=O)N(C)CC(C)C)cnc1O[C@H]1CCC[C@H](C(=O)O)C1` [Example 224, (1S,3S)-3-((5-(5-(((isobutyl(methyl)carbamoyl)oxy)methyl)-1-methyl-1H-1,2,3-triazol-4-yl)-3-methylpyrazin-2-yl)oxy)cyclohexane-1-carboxylic acid], the IC50 under setting [1] came out at 0.121 µM.

As to `CN(CC1CCC1)C(=O)OCc1c(-c2cnc(O[C@H]3CCC[C@H](C(=O)O)C3)cn2)nnn1C` [Example 214, (1S,3S)-3-((5-(5-((((cyclobutylmethyl)(methyl)carbamoyl)oxy)methyl)-1-methyl-1H-1,2,3-triazol-4-yl)pyrazin-2-yl)oxy)cyclohexane-1-carboxylic acid], under setting [1], the half-inhibitory concentration (IC50) was 0.068 µM.

As for `CN(C(=O)OCc1c(-c2ccc(O[C@H]3CCC[C@H](C(=O)O)C3)c(C(F)F)n2)nnn1C)C1CCC1` [Example 280, (1S,3S)-3-((6-(5-(((cyclobutyl(methyl)carbamoyl)oxy)methyl)-1-methyl-1H-1,2,3-triazol-4-yl)-2-(difluoromethyl)pyridin-3-yl)oxy)cyclohexane-1-carboxylic acid], the IC50 under setting [1] turned out to be 0.022 µM.

As for `Cc1nc(-c2nnn(C)c2CCOC(=O)N(C)CC2CCC2)ccc1O[C@H]1CCC[C@H](C(=O)O)C1` [Example 241, (1S,3S)-3-((6-(5-(2-(((Cyclobutylmethyl)(methyl)carbamoyl)oxy)ethyl)-1-methyl-1H-1,2,3-triazol-4-yl)-2-methylpyridin-3-yl)oxy)cyclohexane-1-carboxylic Acid], under setting [1], the IC50 was 0.041 µM.

With `CCc1nc(-c2nnn(C)c2COC(=O)N(C)C2CCCC2)ccc1O[C@H]1CCC[C@H](C(=O)O)C1` [Example 195, (1S,3S)-3-((6-(5-(((cyclopentyl(methyl)carbamoyl)oxy)methyl)-1-methyl-1H-1,2,3-triazol-4-yl)-2-ethylpyridin-3-yl)oxy)cyclohexane-1-carboxylic acid], the IC50 under setting [1] was determined as 0.011 µM.

Consider `CCCN(C)C(=O)OCc1c(-c2ccc(O[C@H]3CCC[C@H](C(=O)O)C3)c(C(F)F)n2)nnn1C` [Example 277, (1S,3S)-3-((2-(difluoromethyl)-6-(1-methyl-5-(((methyl(propyl)carbamoyl)oxy)methyl)-1H-1,2,3-triazol-4-yl)pyridin-3-yl)oxy)cyclohexane-1-carboxylic acid], for which the IC50 under setting [1] was 0.035 µM.

Take `Cc1nc(-c2nnn(C)c2COC(=O)N(C)C(C)C)ccc1O[C@H]1CCC[C@H](C(=O)O)C1` [Example 138]: the IC50 worked out at 0.098 µM.

Take `CCCCN(C)C(=O)OCc1c(-c2cnc(O[C@H]3CCC[C@H](C(=O)O)C3)cn2)nnn1C` [Example 212, (1S,3S)-3-((5-(5-(((butyl(methyl)carbamoyl)oxy)methyl)-1-methyl-1H-1,2,3-triazol-4-yl)pyrazin-2-yl)oxy)cyclohexane-1-carboxylic acid]: the IC50 under setting [1] turned out to be 0.04 µM.

As for `C[C@H](c1ccccc1)N(C)C(=O)OCc1c(-c2ccc(O[C@H]3CCC[C@H](C(=O)O)C3)cn2)nnn1C` [Example 21, (1S,3S)-3-((6-(1-methyl-5-(((methyl((R)-1-phenylethyl)carbamoyl)oxy)methyl)-1H-1,2,3-triazol-4-yl)pyridin-3-yl)oxy)cyclohexane-1-carboxylic acid], the IC50 was 0.021 µM.

Turning to `CCc1nc(-c2nnn(C)c2COC(=O)N(C)Cc2ccccc2)ccc1O[C@H]1CCC[C@H](C(=O)O)C1` [Example 201, (1S,3S)-3-((6-(5-(((benzyl(methyl)carbamoyl)oxy)methyl)-1-methyl-1H-1,2,3-triazol-4-yl)-2-ethylpyridin-3-yl)oxy)cyclohexane-1-carboxylic acid], the 50% inhibitory concentration (IC50) under setting [1] was found to be 0.025 µM.

Regarding `CCCC(C)N(C)C(=O)OCc1c(-c2ccc(O[C@H]3CCC[C@H](C(=O)O)C3)c(C)n2)nnn1C` (mixture of isomers) [Example 31, (1S,3S)-3-((2-methyl-6-(1-methyl-5-(((methyl(pentan-2-yl)carbamoyl)oxy)methyl)-1H-1,2,3-triazol-4-yl)pyridin-3-yl)oxy)cyclohexane-1-carboxylic acid], the IC50 is 0.036 µM.

In the case of `Cc1nc(-c2nnn(C)c2COC(=O)N(C)CC(C)(F)F)ccc1O[C@H]1CCC[C@H](C(=O)O)C1` [Example 259, (1S,3 S)-3-((6-(5-((((2,2-difluoropropyl)(methyl)carbamoyl)oxy)methyl)-1-methyl-1H-1,2,3-triazol-4-yl)-2-methylpyridin-3-yl)oxy)cyclohexane-1-carboxylic Acid], under setting [1], the IC50 stood at 0.134 µM.

`CCc1nc(-c2nnn(C)c2COC(=O)N2CC3(CCC3)C2)ccc1O[C@H]1CCC[C@H](C(=O)O)C1` [Example 210, (1S,3S)-3-((6-(5-(((2-azaspiro[3.3]heptane-2-carbonyl)oxy)methyl)-1-methyl-1H-1,2,3-triazol-4-yl)-2-ethylpyridin-3-yl)oxy)cyclohexane-1-carboxylic acid]: under setting [1], the IC50 was determined as 0.067 µM.

Consider `Cc1nc(-c2nnn(C)c2COC(=O)N(C)CC2CC2)cnc1O[C@H]1CCC[C@H](C(=O)O)C1` [Example 220, (1S,3S)-3-((5-(5-((((cyclopropyl-methyl)(methyl)carbamoyl)oxy)methyl)-1-methyl-1H-1,2,3-triazol-4-yl)-3-methyl-pyrazin-2-yl)oxy)cyclohexane-1-carboxylic acid], for which, under setting [1], the IC50 is 0.149 µM.

The values are drawn from patent publication US10576062B2, “Carbamoyloxymethyl triazole cyclohexyl acids as LPA antagonists” (Bristol-Myers Squibb Company, priority 2016, dated 2020).
